Results taken from patent publication EP0366226A1, “Stabilized thiocarbonate solutions and the use thereof for controlling soil pests” (UNION OIL COMPANY OF CALIFORNIA, priority 1988, dated 1990).
Counter-ions that a name gives are not always drawn.

What was measured:
[1] = Accelerated ageing at 84° C.: effect of additives on thiocarbonate half-life; assay type: physicochemical; conditions: parentheses = decrease
Protocol: The effect of elemental sulfur additions and the addition of free radical scavengers on the half-life of thiocarbonate solutions was determined by an accelerated adding procedure in which the compositions were stored at 84° C. in order to accelerate decomposition and thereby facilitate data acquisition. Incremental additions of 1.0, 3.0 and 5.0 weight percent elemental sulfur were made, and these corresponds to 0.16, 0.48 and 0.86 equivalents of sulfur per equivalent of ammonium sulfide, respectively. Since the solutions contained 1 equivalent of ammonium sulfide per equivalent of ammonium tetrathiocarbonate (based on the weight percent values for those components given above), the amount of ammonium polysulfide in the solution correspond, nominally, to 0.16, 0.48 and 0.86 equivalents polysulfide per equivalent of thiocarbonate for the 3 sulfur concentrations employed.

[2] = Degradation time in sandy loam soil at different moisture (CS2 in air space by gas chromatography); assay type: physicochemical
Protocol: A sandy loam soil was placed in 1-liter glass bottles, fitted with stoppers having fluorocarbon liners and silicone rubber septa, to give a soil depth of about 4 cm. Water was added to the soil, in quantities to obtain 50 and 100 percent soil saturation. Thiocarbonate solution or carbon disulfide was then injected near the bottom of the soil layer, the bottles were promptly sealed, and the air space in the bottles was sampled at intervals with a syringe, for gas chromatographic analysis of CS₂. The results are summarized below, wherein degradation time is the number of hours required to achieve the maximum CS₂ concentration in the air space.

[3] = Solvency of aqueous thiocarbonate solutions for urea; assay type: physicochemical
Protocol: Urea was added to a 41.5 percent, by weight, aqueous solution of calcium tetrathiocarbonate until the solubility limit of urea was reached. At room temperature, the solution dissolved 122 percent by weight urea. The resulting solution was 55 percent urea, 18.6 percent calcium tetrathiocarbonate, and 26.3 percent water, by weight. Thus, the solvency of the aqueous solution of calcium tetrathiocarbonate for urea was at least as great as that of water alone. Similarly, a 46 percent solution of potassium tetrathiocarbonate dissolved 100 percent of its own weight of urea. Similar results were obtained with other tri- and tetrathiocarbonates of alkali metal and alkaline earth metals.

Verticillium dahliae = assay: Fungicidal test, radial growth of mycelia from treated agar blocks; assay type: cell-based
Protocol: (§1) Thiocarbonate solutions were used in a test of their fungicidal properties. Cultures of four plant pathogenic fungi were grown upon potato dextrose agar at room temperature, in diffuse natural lighting. After one week, square blocks having 2 millimeter sides were cut from the edges of actively drawings mycelia spots on the agar.
(§2) The blocks were immersed in sterile deionized water, as a control, or in dilutions of thiocarbonate solutions using the sterile water, in a closed container. Subsequently, the blocks were removed and placed upon agar in clean plates, and mycelia were allowed to grow for one week.
(§3) Radial growth of mycelia colonies was measured for each of the six to eight replicate plates used for a particular fungus, and average colony radius was calculated. Percent control is defined by the following equation: […]
(§4) Concentrations given for solutions used to treat the agar blocks are expressed in grams of thiocarbonate solution per liter of diluted solution.

Sclerotium rolfsii = assay: as above; assay type: cell-based
Protocol: as §1, §2, §3, §4

Fusarium oxysporum = assay: as above; assay type: cell-based
Protocol: as §1, §2, §3, §4

Phytophthora cinnamomi = assay: as above; assay type: cell-based
Protocol: as §1, §2, §3, §4

[4] = tested on: sugar beet cyst nematodes (Heterodera spp.); assay: Soil treatment of infested sugar beets; assay type: in vivo; conditions: about 94 kilograms per hectare, dissolved in irrigation water
Protocol: Sugar beets, infested with sugar beet cyst nematodes (Heterodera spp.), were treated by application to the soil of about 94 kilograms per hectare of CaCS₄, dissolved in irrigation water.

Fusarium spp. = assay: Petri dish tests in potato dextrose agar and broth; assay type: cell-based; conditions: when the broth also contained Trichoderma spp., read-out: solution concentration with which control was obtained
Text: In petri dish tests of CaCS₄ against the fungus Fusarium spp., control with solutions containing less than about 10 grams per liter of the compound, in both potato dextrose agar and potato dextrose broth, was obtained using the solution when the broth also contained another fungus, Trichoderma spp.

[5] = tested on: nitrification of ammoniacal fertilizers in soil; assay: Inhibition of nitrification of urea in sandy loam soil plots; conditions: 5 weight percent solution at 100 liters per acre after 200 lbs. urea per acre; versus untreated plot
Text: The ability of the described thiocarbonate compounds to inhibit nitrification of ammoniacal fertilizers in soil can be illustrated by applying to two separate plots of sandy loam soil a urea solution in irrigation water at a rate corresponding to 200 lbs. urea per acre with sufficient water to increase the soil water content to at least 50 percent. This application can be followed, on one of the plots treated with the urea solution and within one hour of application of the urea solution, with application of an aqueous solution containing 5 weight percent calcium tetrathiocarbonate applied at a rate of 100 liters per acre in sufficient irrigation water to increase the soil water content to 100 percent of saturation.

[6] = Effect of pH on production of CS2 from thiocarbonates in citrate-phosphate buffers (gas chromatography of air); assay type: physicochemical
Protocol: Pure carbon disulfide was also injected, for comparison. A syringe was used to periodically sample air in the bottle, and the air was analyzed by gas chromotography.

[7] = CS2 in equilibrium vapor phase over concentrated thiocarbonate solutions (gas chromatography); assay type: physicochemical; conditions: for equilibrium CS₂ concentration in the vapor phase: 24° C., stoichiometric aqueous solution, 12.9 weight percent equivalent carbon disulfide
Protocol: Accordingly, the amount of base, sulfide and/or polysulfide employed should be sufficient to reduce the carbon disulfide partial pressure of the solution by the desired amount, and the amount of additive required to achieve that effect can be easily determined by adding different, known quantities of base, sulfide and/or polysulfide to the desired thiocarbonate solution, confining the vapor space over the solution at 24° C. for a sufficient period of time, e.g. about 24 hours, and analyzing, the vapor phase by gas chromotography for carbon disulfide. Lower additive concentrations will result in somewhat higher CS₂ equilibrium concentrations (e.g. higher CS₂ partial pressures), and higher additive concentrations will result in lower CS₂ partial pressures.
A series of solutions containing 12.9 weight percent equivalent carbon disulfide as sodium tri- or tetrathiocarbonate were prepared by combining sodium hydroxide, deionized water, sulfur (in the case of tetrathiocarbonate only), hydrogen sulfide and carbon disulfide. In the stoichiometric solutions, the reactants were combined in proportions sufficient to provide sodium tri- or tetrathiocarbonate solutions containing 12.9 weight percent equivalent carbon disulfide without any excess reactant. In addition to the stoichiometric solutions, solutions were prepared with systematically increasing sodium hydroxide concentrations at constant equivalent carbon disulfide concentrations, so that excess base was provided in those solutions in the proportions given in the following table.
The respective solutions were prepared by combining the appropriate amounts of base, water, and elemental sulfur (when used to form the tetrathiocarbonate), in 250 ml. bottles. The contents were then tared, and the appropriate amounts of hydrogen sulfide gas were bubbled in with cooling as necessary to form 100 grams of each of the test solutions. The bottles were then capped with Mininert valves, and the appropriate amount of carbon disulfide was added by injecting with a syringe. All sample bottles were shaken overnight to complete the reaction and were then allowed to equilibrate 3 days at 24° C., and the vapor phase was then sampled and analyzed for carbon disulfide by gas chromotography. The results are reported in the following table and show the effects of increasing base concentrations on carbon disulfide partial pressure (carbon disulfide content of the equilibrium vapor phase). Hydrogen sulfide was not detected in the vapor phase of these formulations at an H₂S detection limit of 100 ppmv.
The operation described in Example 19 was repeated with the exception that sodium sulfide (Na₂S) was substituted for excess base. The sodium sulfide was introduced by forming solutions containing incrementally greater amounts of sodium hydroxide and then adding additional amounts of hydrogen sulfide equivalent to the amount of excess sodium hydroxide to convert the excess sodium hydroxide to sodium sulfide in situ.

[8] = additive Concentration 0.5 Wt. %
[9] = additive Concentration 1.0 Wt. %
[10] = additive Concentration 2.0 Wt. %
[11] = additive Concentration 5.0 Wt. %
[12] = 1 g/l, listed as CaCS₄ (2.8%CS₂)
[13] = 10 g/l, listed as CaCS₄ (2.8%CS₂)
[14] = Base 0.00 equivalent per equivalent of CS2, sodium salt, 12.9 weight percent equivalent CS2
[15] = Base 0.02 equivalent per equivalent of CS2
[16] = Base 0.04 equivalent per equivalent of CS2
[17] = Base 0.08 equivalent per equivalent of CS2
[18] = Base 0.12 equivalent per equivalent of CS2
[19] = Sulfide 0.02 equivalent per equivalent of CS2
[20] = Sulfide 0.04 equivalent per equivalent of CS2
[21] = Sulfide 0.08 equivalent per equivalent of CS2
[22] = Sulfide 0.12 equivalent per equivalent of CS2
[23] = Sulfide (Na2S) 0.00 equivalent per equivalent of CS2, sodium salt, 12.9 weight percent equivalent CS2
[24] = 1 g/l, listed as K₂CS₄ (9.43%CS₂)
[25] = 10 g/l, listed as K₂CS₄ (9.43%CS₂)
[26] = 1 g/l, listed as Na₂CS₄ (10.6%CS₂)
[27] = 10 g/l, listed as Na₂CS₄ (10.6%CS₂)

O=C1O[C@H]([C@@H](O)CO)C(O)=C1O [Ascorbic Acid]
Increase (Decrease) in Half-Life, % [1, 8]: 0%
Increase (Decrease) in Half-Life, % [1, 9]: 0%
Increase (Decrease) in Half-Life, % [1, 10]: 0%

O=C(O)CC(O)(CC(=O)O)C(=O)O [Citric Acid, Na Salt]
Increase (Decrease) in Half-Life, % [1, 8]: 0%
Increase (Decrease) in Half-Life, % [1, 9]: 0%
Increase (Decrease) in Half-Life, % [1, 10]: 0%

COc1ccc(O)cc1 [p-Methoxyphenol]
Increase (Decrease) in Half-Life, % [1, 8]: 0%
Increase (Decrease) in Half-Life, % [1, 9]: 0%
Increase (Decrease) in Half-Life, % [1, 10]: 0%

NC(N)=O [Urea]
Increase (Decrease) in Half-Life, % [1, 11]: 0%

Elemental Sulfur
Increase (Decrease) in Half-Life, % [1, 9]: 0%
Increase (Decrease) in Half-Life, % ([1]; additive Concentration 3.0 Wt. %): 16%
Increase (Decrease) in Half-Life, % [1, 11]: 22%

S=C(S)SS [CaCS₄, calcium tetrathiocarbonate]
Degradation Time ([2]; Soil Moisture 0 % of Saturation, hours to maximum CS2 concentration in the air space): 4 h
urea dissolved by the solution ([3]; 41.5 percent by weight aqueous solution, room temperature): 122 percent by weight
Percent Control Verticillium dahliae (Verticillium dahliae; [12]): 13%
Percent Control Verticillium dahliae (Verticillium dahliae; [13]): 22%
Percent Control Sclerotium rolfsii (Sclerotium rolfsii; [12]): 46%
Percent Control Sclerotium rolfsii (Sclerotium rolfsii; [13]): 62%
Percent Control Fusarium oxysporum (Fusarium oxysporum; [12]): 3%
Percent Control Fusarium oxysporum (Fusarium oxysporum; [13]): 18%
Percent Control Fusarium oxysporum (Fusarium oxysporum; 100 g/l thiocarbonate solution per liter of diluted solution, listed as CaCS₄ (2.8%CS₂)): 100%
Percent Control Phytophthora cinnamomi (Phytophthora cinnamomi; [12]): 56%
Percent Control Phytophthora cinnamomi (Phytophthora cinnamomi; [13]): 56%
counts and viability of nematode larvae in the soil following treatment [4]: remained high, but the larvae were not viable
minimal effective concentration (Fusarium spp.): < 10000 µg/mL
nitrification of urea in the treated soil [5]: nitrified more slowly
Half-life (minutes) for production of carbon disulfide ([6]; pH 5.2, 125 milligrams of thiocarbonate ion per liter): 1 min
Half-life (minutes) for production of carbon disulfide ([6]; pH 6.0): 1.8 min
Half-life (minutes) for production of carbon disulfide ([6]; pH 7.0): 2.7 min
Half-life (minutes) for production of carbon disulfide ([6]; pH 8.0, CaCS4 values above pH 7 called unreliable): 8.0 min

S=C(S)S [Trithiocarbonate, sodium trithiocarbonate]
equilibrium CS₂ concentration in the vapor phase [7]: 27 volume percent
CS₂ in Equilibrium Vapor at 24° C., Vol. % [7, 14]: 27.5 Vol. %
CS₂ in Equilibrium Vapor at 24° C., Vol. % [7, 15]: 34.2 Vol. %
CS₂ in Equilibrium Vapor at 24° C., Vol. % [7, 16]: 30.0 Vol. %
CS₂ in Equilibrium Vapor at 24° C., Vol. % [7, 17]: 0.67 Vol. %
CS₂ in Equilibrium Vapor at 24° C., Vol. % [7, 18]: 0.16 Vol. %
CS₂ in Equilibrium Vapor at 24° C., Vol. % [7, 19]: 45.9 Vol. %
CS₂ in Equilibrium Vapor at 24° C., Vol. % [7, 20]: 1.39 Vol. %
CS₂ in Equilibrium Vapor at 24° C., Vol. % [7, 21]: 0.57 Vol. %
CS₂ in Equilibrium Vapor at 24° C., Vol. % [7, 22]: 0.42 Vol. %
CS₂ in Equilibrium Vapor at 24° C., Vol. % [7, 23]: 27.5 Vol. %

CCN(CC)CC [Triethylamine]
Increase (Decrease) in Half-Life, % [1, 9]: 0%

S=C(S)SS [K₂CS₄, potassium tetrathiocarbonate]
Degradation Time ([2]; Soil Moisture 50 % of Saturation): 5 h
Degradation Time ([2]; Soil Moisture 100 % of Saturation): 48 h
urea dissolved by the solution ([3]; 46 percent solution): 100% of its own weight
Percent Control Verticillium dahliae (Verticillium dahliae; [24]): 27%
Percent Control Verticillium dahliae (Verticillium dahliae; [25]): 15%
Percent Control Sclerotium rolfsii (Sclerotium rolfsii; [24]): 42%
Percent Control Sclerotium rolfsii (Sclerotium rolfsii; [25]): 8%
Percent Control Fusarium oxysporum (Fusarium oxysporum; [24]): 8%
Percent Control Fusarium oxysporum (Fusarium oxysporum; [25]): 10%
Percent Control Fusarium oxysporum (Fusarium oxysporum; 100 g/l thiocarbonate solution per liter of diluted solution, listed as K₂CS₄ (9.43%CS₂)): 76%
Percent Control Phytophthora cinnamomi (Phytophthora cinnamomi; [24]): 56%
Percent Control Phytophthora cinnamomi (Phytophthora cinnamomi; [25]): 68%

Oc1ccc(O)cc1 [Hydroquinone]
Increase (Decrease) in Half-Life, % [1, 8]: 0%

S=C(S)SS [Na₂CS₄, sodium tetrathiocarbonate]
Percent Control Verticillium dahliae (Verticillium dahliae; [26]): 23%
Percent Control Sclerotium rolfsii (Sclerotium rolfsii; [27]): 100%
Percent Control Fusarium oxysporum (Fusarium oxysporum; [26]): 4%
Percent Control Fusarium oxysporum (Fusarium oxysporum; [27]): 6%
Percent Control Fusarium oxysporum (Fusarium oxysporum; 100 g/l thiocarbonate solution per liter of diluted solution, listed as Na₂CS₄ (10.6%CS₂)): 100%
Percent Control Phytophthora cinnamomi (Phytophthora cinnamomi; [27]): 37%
equilibrium CS₂ concentration in the vapor phase [7]: approximately 14 volume percent
CS₂ in Equilibrium Vapor at 24° C., Vol. % [7, 14]: 14.4 Vol. %
CS₂ in Equilibrium Vapor at 24° C., Vol. % [7, 15]: 0.87 Vol. %
CS₂ in Equilibrium Vapor at 24° C., Vol. % [7, 16]: 0.47 Vol. %
CS₂ in Equilibrium Vapor at 24° C., Vol. % [7, 17]: 0.29 Vol. %
CS₂ in Equilibrium Vapor at 24° C., Vol. % [7, 18]: 0.27 Vol. %
CS₂ in Equilibrium Vapor at 24° C., Vol. % [7, 19]: 6.60 Vol. %
CS₂ in Equilibrium Vapor at 24° C., Vol. % [7, 20]: 0.74 Vol. %
CS₂ in Equilibrium Vapor at 24° C., Vol. % [7, 21]: 0.12 Vol. %
CS₂ in Equilibrium Vapor at 24° C., Vol. % [7, 22]: 0.13 Vol. %
CS₂ in Equilibrium Vapor at 24° C., Vol. % [7, 23]: 14.4 Vol. %
